Experimental findings from paper PMC3961306, “Comparison of the Cancer Gene Targeting and Biochemical Selectivities of All Targeted Kinase Inhibitors Approved for Clinical Use” (PLoS ONE, 2014) are described below.

Experiment in all cases: Kinase profiling in a biochemical assay panel (mobility shift assays and ELISA), %-inhibition at 1 μM; selectivity entropy
For orientation: ELISA stands for enzyme-linked immunosorbent assay.

Experiment [1] addresses T1, panel of more than 300 wild-type and mutant kinases (313 kinase panel) (Homo sapiens, UniProt O14920).
T1 sequence (O14920 1-756): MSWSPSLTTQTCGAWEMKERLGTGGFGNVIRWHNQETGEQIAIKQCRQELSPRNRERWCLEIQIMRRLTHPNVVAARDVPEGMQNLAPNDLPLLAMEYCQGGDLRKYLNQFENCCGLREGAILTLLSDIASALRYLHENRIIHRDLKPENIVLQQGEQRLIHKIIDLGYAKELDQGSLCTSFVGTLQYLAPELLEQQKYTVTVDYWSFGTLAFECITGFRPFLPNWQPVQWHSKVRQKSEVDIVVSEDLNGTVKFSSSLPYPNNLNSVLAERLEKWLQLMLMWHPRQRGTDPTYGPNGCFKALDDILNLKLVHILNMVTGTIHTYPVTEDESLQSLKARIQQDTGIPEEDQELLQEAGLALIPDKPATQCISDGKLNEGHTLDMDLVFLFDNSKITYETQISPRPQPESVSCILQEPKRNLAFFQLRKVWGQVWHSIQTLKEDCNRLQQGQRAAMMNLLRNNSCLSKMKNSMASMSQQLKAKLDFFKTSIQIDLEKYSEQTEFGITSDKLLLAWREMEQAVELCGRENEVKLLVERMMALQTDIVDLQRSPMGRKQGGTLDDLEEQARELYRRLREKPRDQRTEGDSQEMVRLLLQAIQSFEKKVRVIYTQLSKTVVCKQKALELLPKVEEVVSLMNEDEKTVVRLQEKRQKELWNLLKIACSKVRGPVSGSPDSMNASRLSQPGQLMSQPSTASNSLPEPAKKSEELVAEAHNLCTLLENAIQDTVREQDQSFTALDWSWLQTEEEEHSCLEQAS

Experiment [2] deals with T2, panel of more than 300 wild-type and mutant kinases (313 kinase panel) (Homo sapiens, UniProt P51817).
T2 sequence (P51817 1-358): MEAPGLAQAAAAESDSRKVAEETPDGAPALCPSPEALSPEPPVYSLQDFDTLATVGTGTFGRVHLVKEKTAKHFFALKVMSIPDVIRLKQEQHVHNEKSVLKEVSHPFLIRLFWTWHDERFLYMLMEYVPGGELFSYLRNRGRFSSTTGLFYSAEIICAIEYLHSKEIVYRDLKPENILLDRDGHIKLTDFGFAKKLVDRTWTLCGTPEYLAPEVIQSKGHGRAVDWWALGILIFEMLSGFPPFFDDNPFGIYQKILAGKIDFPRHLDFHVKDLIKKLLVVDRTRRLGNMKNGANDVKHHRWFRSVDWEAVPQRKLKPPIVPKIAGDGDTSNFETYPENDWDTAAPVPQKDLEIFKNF

Experiment [3] addresses panel of more than 300 wild-type and mutant kinases (313 kinase panel) (Homo sapiens, UniProt P06213).
The target in experiment [4] is panel of more than 300 wild-type and mutant kinases (313 kinase panel) (Homo sapiens, UniProt Q9UPE1).
For experiment [5], the target named is T3, panel of more than 300 wild-type and mutant kinases (313 kinase panel) (Homo sapiens, UniProt Q13163).
T3 sequence (Q13163 1-448): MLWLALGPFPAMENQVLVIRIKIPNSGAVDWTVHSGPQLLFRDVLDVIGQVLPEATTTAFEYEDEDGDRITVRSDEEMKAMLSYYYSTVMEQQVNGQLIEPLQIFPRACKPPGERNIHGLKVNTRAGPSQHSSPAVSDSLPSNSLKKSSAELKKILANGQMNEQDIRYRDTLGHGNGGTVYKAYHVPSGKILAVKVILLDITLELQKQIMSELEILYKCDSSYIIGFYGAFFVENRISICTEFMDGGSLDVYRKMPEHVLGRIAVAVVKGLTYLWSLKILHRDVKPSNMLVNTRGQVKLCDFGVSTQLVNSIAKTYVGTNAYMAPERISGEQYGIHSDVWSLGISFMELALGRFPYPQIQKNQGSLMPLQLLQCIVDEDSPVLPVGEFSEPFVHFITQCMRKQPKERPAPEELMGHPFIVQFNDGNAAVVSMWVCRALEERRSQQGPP

Experiment [6] addresses panel of more than 300 wild-type and mutant kinases (313 kinase panel) (Homo sapiens, UniProt Q13233).
Experiment [7] concerns the target panel of more than 300 wild-type and mutant kinases (313 kinase panel) (Homo sapiens, UniProt O94804).
The mark [8] stands for this setting: kinase MAP2K5, compound at 1 μM.
Setting [9] is: kinase MAP3K1, compound at 1 μM.

Sequence of panel of more than 300 wild-type and mutant kinases (313 kinase panel) (Homo sapiens, UniProt P06213) (P06213 28-1382, change not shown): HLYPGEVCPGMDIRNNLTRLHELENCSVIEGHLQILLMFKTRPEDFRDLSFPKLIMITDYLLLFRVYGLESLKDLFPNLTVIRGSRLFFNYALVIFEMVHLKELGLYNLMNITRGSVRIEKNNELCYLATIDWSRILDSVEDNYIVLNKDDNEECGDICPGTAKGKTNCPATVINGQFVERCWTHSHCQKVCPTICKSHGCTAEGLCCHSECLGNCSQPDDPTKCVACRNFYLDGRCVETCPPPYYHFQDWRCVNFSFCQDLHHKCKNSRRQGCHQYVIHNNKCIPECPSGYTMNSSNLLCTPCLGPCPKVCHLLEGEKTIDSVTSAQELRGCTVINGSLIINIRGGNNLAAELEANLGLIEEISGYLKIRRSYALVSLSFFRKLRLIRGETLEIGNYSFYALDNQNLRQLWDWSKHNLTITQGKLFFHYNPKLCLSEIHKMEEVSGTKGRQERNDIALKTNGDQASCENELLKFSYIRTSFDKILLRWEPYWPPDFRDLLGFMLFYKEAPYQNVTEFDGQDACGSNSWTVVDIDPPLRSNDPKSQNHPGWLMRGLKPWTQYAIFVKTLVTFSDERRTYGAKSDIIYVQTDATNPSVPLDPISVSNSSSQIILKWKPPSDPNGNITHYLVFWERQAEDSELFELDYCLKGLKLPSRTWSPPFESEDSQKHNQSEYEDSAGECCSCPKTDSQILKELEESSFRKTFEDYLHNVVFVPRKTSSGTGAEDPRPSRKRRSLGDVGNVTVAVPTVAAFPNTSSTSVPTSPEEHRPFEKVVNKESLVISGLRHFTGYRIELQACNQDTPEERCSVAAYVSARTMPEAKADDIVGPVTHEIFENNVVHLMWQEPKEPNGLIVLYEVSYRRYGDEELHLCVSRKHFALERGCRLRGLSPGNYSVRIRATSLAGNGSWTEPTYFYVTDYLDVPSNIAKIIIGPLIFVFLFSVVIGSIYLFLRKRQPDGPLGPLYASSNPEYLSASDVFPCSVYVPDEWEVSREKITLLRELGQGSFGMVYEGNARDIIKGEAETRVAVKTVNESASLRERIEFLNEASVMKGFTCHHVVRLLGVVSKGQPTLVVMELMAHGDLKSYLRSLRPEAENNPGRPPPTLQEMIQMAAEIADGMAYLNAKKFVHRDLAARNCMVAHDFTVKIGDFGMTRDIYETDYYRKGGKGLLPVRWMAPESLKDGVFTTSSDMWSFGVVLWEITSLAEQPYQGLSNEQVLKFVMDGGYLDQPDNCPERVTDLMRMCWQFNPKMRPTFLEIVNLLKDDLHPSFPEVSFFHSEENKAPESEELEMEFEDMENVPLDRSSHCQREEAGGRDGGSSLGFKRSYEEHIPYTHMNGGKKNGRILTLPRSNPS
Sequence of panel of more than 300 wild-type and mutant kinases (313 kinase panel) (Homo sapiens, UniProt O94804) (O94804 whole entry, change not shown): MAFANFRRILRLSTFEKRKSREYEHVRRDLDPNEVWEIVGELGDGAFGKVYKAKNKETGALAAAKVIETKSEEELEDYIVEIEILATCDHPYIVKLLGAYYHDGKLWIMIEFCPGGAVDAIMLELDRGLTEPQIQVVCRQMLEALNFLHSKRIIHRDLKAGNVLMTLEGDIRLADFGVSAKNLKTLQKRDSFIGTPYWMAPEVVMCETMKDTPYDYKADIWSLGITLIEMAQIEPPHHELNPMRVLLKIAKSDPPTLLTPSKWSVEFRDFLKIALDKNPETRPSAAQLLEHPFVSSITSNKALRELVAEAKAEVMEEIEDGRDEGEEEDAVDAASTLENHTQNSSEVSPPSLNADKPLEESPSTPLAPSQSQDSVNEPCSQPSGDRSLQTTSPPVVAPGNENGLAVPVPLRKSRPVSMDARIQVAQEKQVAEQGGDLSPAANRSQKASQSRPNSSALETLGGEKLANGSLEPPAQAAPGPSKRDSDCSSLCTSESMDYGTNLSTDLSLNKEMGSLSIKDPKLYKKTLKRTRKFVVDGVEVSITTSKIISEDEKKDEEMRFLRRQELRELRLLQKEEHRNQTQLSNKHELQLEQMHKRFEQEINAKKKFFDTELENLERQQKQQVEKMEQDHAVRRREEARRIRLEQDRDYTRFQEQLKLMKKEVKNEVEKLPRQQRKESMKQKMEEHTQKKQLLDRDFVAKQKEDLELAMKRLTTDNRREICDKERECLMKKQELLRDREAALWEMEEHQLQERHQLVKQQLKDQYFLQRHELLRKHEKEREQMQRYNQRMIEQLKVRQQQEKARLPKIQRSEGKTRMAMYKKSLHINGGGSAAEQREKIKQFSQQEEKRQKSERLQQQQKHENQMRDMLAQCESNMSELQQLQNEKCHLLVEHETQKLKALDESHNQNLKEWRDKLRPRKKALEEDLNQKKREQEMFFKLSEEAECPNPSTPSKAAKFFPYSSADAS
Sequence of panel of more than 300 wild-type and mutant kinases (313 kinase panel) (Homo sapiens, UniProt Q13233) (Q13233 whole entry, change not shown): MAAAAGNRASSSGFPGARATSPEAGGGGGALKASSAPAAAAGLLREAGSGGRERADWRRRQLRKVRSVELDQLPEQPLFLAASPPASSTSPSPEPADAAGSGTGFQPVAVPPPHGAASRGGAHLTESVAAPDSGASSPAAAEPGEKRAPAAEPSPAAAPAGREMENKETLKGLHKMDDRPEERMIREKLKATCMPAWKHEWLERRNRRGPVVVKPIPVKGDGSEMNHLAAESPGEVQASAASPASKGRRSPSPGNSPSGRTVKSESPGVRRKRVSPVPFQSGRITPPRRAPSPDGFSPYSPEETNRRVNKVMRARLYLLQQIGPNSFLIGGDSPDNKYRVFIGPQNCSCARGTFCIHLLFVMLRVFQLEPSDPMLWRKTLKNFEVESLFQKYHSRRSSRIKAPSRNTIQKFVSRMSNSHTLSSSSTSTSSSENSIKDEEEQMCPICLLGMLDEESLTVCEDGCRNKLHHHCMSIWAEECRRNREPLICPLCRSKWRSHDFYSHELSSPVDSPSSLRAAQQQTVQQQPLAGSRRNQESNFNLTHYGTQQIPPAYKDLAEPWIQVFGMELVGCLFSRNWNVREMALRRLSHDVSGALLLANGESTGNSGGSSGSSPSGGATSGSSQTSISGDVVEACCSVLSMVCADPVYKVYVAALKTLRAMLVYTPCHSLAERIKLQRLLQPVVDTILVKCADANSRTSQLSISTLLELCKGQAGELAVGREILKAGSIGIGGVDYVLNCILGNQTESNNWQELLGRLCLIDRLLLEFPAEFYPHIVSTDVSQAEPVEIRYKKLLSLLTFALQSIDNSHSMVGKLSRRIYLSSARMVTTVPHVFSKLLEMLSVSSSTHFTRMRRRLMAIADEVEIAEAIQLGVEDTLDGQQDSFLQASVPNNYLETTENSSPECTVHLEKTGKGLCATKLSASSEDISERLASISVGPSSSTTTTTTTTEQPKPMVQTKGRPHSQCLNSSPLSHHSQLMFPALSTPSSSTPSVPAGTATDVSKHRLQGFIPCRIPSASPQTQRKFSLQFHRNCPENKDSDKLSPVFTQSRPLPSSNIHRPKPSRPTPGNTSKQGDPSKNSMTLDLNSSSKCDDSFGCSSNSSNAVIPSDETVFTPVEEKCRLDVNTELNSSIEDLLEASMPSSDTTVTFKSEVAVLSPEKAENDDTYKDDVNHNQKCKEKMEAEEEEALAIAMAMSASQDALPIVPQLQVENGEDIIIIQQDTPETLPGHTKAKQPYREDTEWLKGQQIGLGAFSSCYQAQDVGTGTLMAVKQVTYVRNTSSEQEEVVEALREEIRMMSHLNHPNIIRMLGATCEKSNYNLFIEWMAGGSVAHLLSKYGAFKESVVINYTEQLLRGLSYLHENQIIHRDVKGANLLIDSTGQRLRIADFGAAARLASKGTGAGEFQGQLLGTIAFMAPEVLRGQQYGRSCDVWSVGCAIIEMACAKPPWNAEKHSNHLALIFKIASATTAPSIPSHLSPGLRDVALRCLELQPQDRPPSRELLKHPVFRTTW

For `CCCS(=O)(=O)Nc1ccc(F)c(C(=O)c2c[nH]c3ncc(-c4ccc(Cl)cc4)cc23)c1F` [vemurafenib], the “%-inhibition of IKKβ” value in experiment [1] (kinase IKKβ, compound at 1 μM) was -3.31%. In experiment [2] (kinase PRKX, 1 μM), the “%-inhibition of PRKX” value is recorded as -3.45%. For the same molecule, the “%-inhibition of INSR” value in experiment [3] (kinase INSR, compound at 1 μM) turned out to be 17%. For the same molecule, the “%-inhibition of MSSK1” value in experiment [4] (kinase MSSK1, 1 μM) is on record as -6.65%. For the same molecule, in experiment [5] (setting [8]), the “%-inhibition of MAP2K5” value is on record as 32%. Moreover, the “%-inhibition of MAP3K1” value in experiment [6] (setting [9]) came out at 13%. The “%-inhibition of LOK” value in experiment [7] (kinase LOK, compound at 1 μM) is given as -1%.

For the molecule `COc1cc2c(Nc3ccc(Br)cc3F)ncnc2cc1OCC1CCN(C)CC1` [vandetanib], the “%-inhibition of IKKβ” value in experiment [1] (kinase IKKβ, compound at 1 μM) was -4.53%. For the same molecule, in experiment [2] (kinase PRKX, 1 μM), the “%-inhibition of PRKX” value is on record as -5.69%. Moreover, the “%-inhibition of INSR” value in experiment [3] (kinase INSR, compound at 1 μM) turned out to be 3.63%. In experiment [4] (kinase MSSK1, 1 μM), the “%-inhibition of MSSK1” value is recorded as -4.37%. The “%-inhibition of MAP2K5” value in experiment [5] (setting [8]) is given as 43%. Besides, the “%-inhibition of MAP3K1” value in experiment [6] (setting [9]) is reported as -7.43%. Besides, in experiment [7] (kinase LOK, compound at 1 μM), the “%-inhibition of LOK” value was 92%.

With `C#Cc1cccc(Nc2ncnc3cc(OCCOC)c(OCCOC)cc23)c1` [erlotinib], the “%-inhibition of IKKβ” value in experiment [1] (1 µM) stood at 11%. Besides, the “%-inhibition of PRKX” value in experiment [2] (1 µM) was 2%. Also, the “%-inhibition of INSR” value in experiment [3] (1 µM) came to 4%. Besides, the “%-inhibition of MSSK1” value in experiment [4] (1 µM) is recorded as -5%. Further, the “%-inhibition of MAP2K5” value in experiment [5] (1 µM) is 92%. In experiment [6] (1 µM), the “%-inhibition of MAP3K1” value amounted to 6%. Moreover, in experiment [7] (1 µM), the “%-inhibition of LOK” value is 93%.

As to `CNC(=O)c1cc(Oc2ccc(NC(=O)Nc3ccc(Cl)c(C(F)(F)F)c3)c(F)c2)ccn1` [regorafenib], the “%-inhibition of IKKβ” value in experiment [1] (kinase IKKβ, compound at 1 μM) is listed as -4.61%. Moreover, in experiment [2] (kinase PRKX, 1 μM), the “%-inhibition of PRKX” value was -5.52%. Besides, in experiment [3] (kinase INSR, compound at 1 μM), the “%-inhibition of INSR” value was -2.79%. In experiment [4] (kinase MSSK1, 1 μM), the “%-inhibition of MSSK1” value stood at 43%. The “%-inhibition of MAP2K5” value in experiment [5] (setting [8]) came out at 17%. Besides, in experiment [6] (setting [9]), the “%-inhibition of MAP3K1” value came out at 4%. Moreover, the “%-inhibition of LOK” value in experiment [7] (kinase LOK, compound at 1 μM) was determined as 80%.

For the molecule `Cc1ccc(C(=O)Nc2ccc(CN3CCN(C)CC3)c(C(F)(F)F)c2)cc1C#Cc1cnc2cccnn12` [ponatinib], the “%-inhibition of IKKβ” value in experiment [1] (kinase IKKβ, compound at 1 μM) is recorded as 46%. Further, in experiment [2] (kinase PRKX, 1 μM), the “%-inhibition of PRKX” value is 26%. Besides, in experiment [3] (kinase INSR, compound at 1 μM), the “%-inhibition of INSR” value is given as 43%. The “%-inhibition of MSSK1” value in experiment [4] (kinase MSSK1, 1 μM) is given as 17%. The “%-inhibition of MAP2K5” value in experiment [5] (setting [8]) is recorded as 61%. The “%-inhibition of MAP3K1” value in experiment [6] (setting [9]) is recorded as -9%.

On to `Cc1ccc(Nc2nccc(N(C)c3ccc4c(C)n(C)nc4c3)n2)cc1S(N)(=O)=O` [pazopanib], for which, in experiment [1] (kinase IKKβ, compound at 1 μM), the “%-inhibition of IKKβ” value was 0.627%. In experiment [2] (kinase PRKX, 1 μM), the “%-inhibition of PRKX” value is given as -1.14%. Also, the “%-inhibition of INSR” value in experiment [3] (kinase INSR, compound at 1 μM) was 22%. The “%-inhibition of MSSK1” value in experiment [4] (kinase MSSK1, 1 μM) is given as -2%. Also, the “%-inhibition of MAP2K5” value in experiment [5] (setting [8]) amounted to 13%. In addition, the “%-inhibition of MAP3K1” value in experiment [6] (setting [9]) was determined as 37%. Besides, the “%-inhibition of LOK” value in experiment [7] (kinase LOK, compound at 1 μM) came out at 70%.

As to `Cc1nc(Nc2ncc(C(=O)Nc3c(C)cccc3Cl)s2)cc(N2CCN(CCO)CC2)n1` [dasatinib], the “%-inhibition of MSSK1” value in experiment [4] (kinase MSSK1, 1 μM) was -4.63%.

Regarding `COc1cc(Nc2c(C#N)cnc3cc(OCCCN4CCN(C)CC4)c(OC)cc23)c(Cl)cc1Cl` [bosutinib], the “%-inhibition of IKKβ” value in experiment [1] (kinase IKKβ, compound at 1 μM) is on record as -6%. In experiment [2] (kinase PRKX, 1 μM), the “%-inhibition of PRKX” value is reported as -4.31%. The “%-inhibition of INSR” value in experiment [3] (kinase INSR, compound at 1 μM) came out at 65%. For the same molecule, in experiment [5] (setting [8]), the “%-inhibition of MAP2K5” value was found to be 63%. Moreover, the “%-inhibition of MAP3K1” value in experiment [6] (setting [9]) was 60%.
